Results as given in article PMC10542788, “Discovery of a cystathionine γ-lyase (CSE) selective inhibitor targeting active-site pyridoxal 5′-phosphate (PLP) via Schiff base formation” (Scientific Reports, 2023).

Columns and labels:
MGL = MGL inhibition, HSip-1 fluorescence; type: biochemical; settings: 30 µM
Procedure: (§1) The selectivity of 1, 2 and PAG for rCSE over other RSS-producing enzymes, CBS and 3MST, was examined (Fig. 4a). CBS is a PLP-dependent enzyme, like CSE, and produces H2S from cysteine and homocysteine as substrates. 3MST is also an H2S-producing enzyme, but is not PLP-dependent and uses 3-mercaptopyruvate as a substrate. The amount of H2S produced by CBS or 3MST was evaluated in the presence or absence of the inhibitor by measuring the fluorescence intensity of HSip-1. […] We also examined the inhibitory activity towards two other PLP-dependent enzymes, MGL and ALT. MGL metabolizes L-methionine to α-ketobutyric acid, methanethiol and ammonia, and is inhibited by PAG[14]. MGL also produces H2S from homocysteine as a substrate, and this activity of MGL can be measured by fluorescence detection with HSip-1. […] The enzymatic activity of ALT can be assessed by means of a coupled assay using the reduction of pyruvate to L-lactate with lactate dehydrogenase and NADH and measuring the change in absorption of NADH.
10 µL of 200 µM homocysteine in 30 mM HEPES (pH 7.4) was added to 10 µL of a solution containing 20 µg/mL MGL (Sigma-Aldrich), 100 µM PLP, 1 µM HSip-1, 0.005% tween 20 and various concentrations of the inhibitor (0.5% DMSO as a cosolvent). The mixture was incubated at 25 °C for 100 min and the fluorescence intensity of HSip-1 was measured with a microplate reader.

ALT = ALT inhibition, coupled absorbance assay (NADH, 340 nm); type: biochemical; settings: 30 µM
Procedure: as §1
An alanine aminotransferase activity assay kit (BioVision, Inc.) was used to measure the activity of ALT. A mixture of L-alanine, NADH, LDH (lactate dehydrogenase) and ALT was incubated at 37 °C for 15 min, then α-ketoglutarate was added to the mixture and the absorbance at 340 nm was measured with a microplate reader.

methionine γ-lyase (MGL) = system: methionine γ-lyase (MGL); set-up: method as in PMID 12920135; settings: cited from earlier work
[1] = system: L-alanine transaminase (ALT); set-up: method as in PMID 7364752; settings: cited from earlier work
rat CSE (rCSE) = target: T1, rat CSE (rCSE) (Rattus norvegicus, UniProt P18757); experiment: rCSE inhibition, H2S detection by fluorescence of HSip-1; type: biochemical; settings: for IC50: fluorescence assay with HSip-1, 1.5 mM cysteine, 100 μM PLP, mean ± S.E., read-out: IC50, inhibitory activity towards rCSE
T1 construct: His-tag (C); made in house; host or cells: E. coli BL21
Procedure: The developed assay system employs a plate reader to detect H2S production by CSE as a fluorescence signal in a solution containing 30 μg/mL rat CSE (rCSE), 1 μM HSip-1, 100 μM pyridoxal-5′-phosphate (PLP) and 1.5 mM cysteine (a substrate) in a 384-well plate format (Fig. 1b). A large amount of rCSE was expressed in E. coli and purified on a Ni Sepharose 6 Fast Flow module. We then performed screening of a chemical library consisting of 161,600 compounds (from the Drug Discovery Initiative, the University of Tokyo) for CSE inhibitors (Fig. 1c). […] Then, a confirmation test for repeatability (n = 4) of the 160 compounds selected in the 1st screening was performed to exclude false-positives. In this step, we also excluded cysteine-reactive compounds by changing the addition order of the rCSE and cysteine (substrate) solutions. In other words, in the 1st screening, the enzyme solution was firstly added to each library compound, while in the confirmation test for repeatability of the hit compounds in the 1st screening, we firstly added the cysteine solution to each compound. This enabled us to identify and exclude cysteine-reactive compounds, based on their reaction with the added cysteine. These procedures left 80 compounds showing both more than 40% inhibition at 10 µM and similar % inhibition of rCSE irrespective of the addition order of the rCSE and cysteine solutions. In the 2nd screening, we examined the reactivity of these 80 compounds with H2S using an H2S donor[17] to exclude H2S-reactive compounds. […] In this assay, we selected 13 compounds which were non-reactive to H2S, but one was relatively unstable and two of them were the same compound, so that 11 compounds were finally selected. These compounds included some hydrazine and hydrazide derivatives, so we performed titration assay of the selected 11 compounds together with 9 commercially available hydrazine and hydrazide compounds (Supplementary Fig. S3) and calculated the half-maximal (50%) inhibitory concentration (IC50) of each compound.
The fluorescence intensity of HSip-1 was measured (λex = 490 nm, λem = 510 nm) with a microplate reader (EnVision, Perkin Elmer).
10 µL of 1.5 mM cysteine solution in 30 mM HEPES (pH 7.4) was added to 10 µL of solution containing 30 µg/mL rCSE, 100 µM PLP, 1 µM HSip-1, 0.005% tween 20 and the test compound (0.5% DMSO as a cosolvent). The mixture was incubated at 25 °C for 3 h and the fluorescence intensity of HSip-1 was measured with a microplate reader.

| IC50 (rat CSE (rCSE)) [µM] | Structure (SMILES) | inhibitory activity towards MGL / selectivity for CSE over MGL (MGL) | inhibitory activity towards ALT / selectivity for CSE over ALT (ALT) | inhibition of MGL (methionine γ-lyase (MGL)) | inhibition of ALT [1] | selectivity for CSE over other enzymes (CBS, 3MST, MGL, ALT) (rat CSE (rCSE); 3 µM) |
| --- | --- | --- | --- | --- | --- | --- |
| – | C#CCC(N)C(=O)O (racemic) [PAG, D,L-Propargylglycine, reference compound] | inhibited both MGL and ALT | inhibited both MGL and ALT | inhibited | inhibited | – |
| 0.43 ± 0.02 | CNC(=O)C(=O)NN [Compound 2] | some inhibitory activity towards MGL and ALT | some inhibitory activity towards MGL and ALT | – | – | high selectivity for CSE |
| > 100 | CCNC(=O)C(=O)NN [Compound 3] | – | – | – | – | – |
| > 100 | NNC(=O)C(=O)Nc1ccccc1 [Compound 4] | – | – | – | – | – |
